Results on two compounds are retold here after patent publication US9127021B2, “Hepatitis C virus inhibitors” (priority 2010, dated 2015).

As a reminder, the EC50 is the midpoint of the concentration-response curve.

The structures appear in SMILES notation. Where two headings read alike, the source gives them in different places.

One experiment relates to HCV 1a genotype replicon. Nature of the experiment: HCV genotype 1a replicon assay (qRT-PCR or luciferase). It is filed as cell-based. The note with it: Hepatitis C virus.
The next experiment deals with HCV 1b genotype replicon. As to the kind of experiment: HCV genotype 1b replicon assay (qRT-PCR or luciferase). It is filed as cell-based. The note with it: Hepatitis C virus. From the text: HCV replicon cell lines (kindly provided by R. Bartenschlager) isolated from colonies as described by Lohman et al. (Lohman et al. (1999) Science 285: 110-113, expressly incorporated by reference in its entirety) and used for all experiments. The HCV replicon has the nucleic acid sequence set forth in EMBL Accession No.: AJ242651, the coding sequence of which is from nucleotides 1801 to 8406.
The coding sequence of the published HCV replicon was synthesized and subsequently assembled in a modified plasmid pBR322 (Promega, Madison, Wis.) using standard molecular biology techniques. […]
EC50 values of single agent compounds were determined by HCV RNA detection using quantitative RT-PCR, according to the manufacturer's instructions, with a TAQMAN® One-Step RT-PCR Master Mix Reagents Kit (Cat#AB 4309169, Applied Biosystems) on an ABI Model 7500 thermocycler. EC50 values of combinations are similarly determined by HCV RNA detection using quantitative RT-PCR. The TAQMAN primers to use for detecting and quantifying HCV RNA obtained from Integrated DNA Technologies. HCV RNA is normalized to GAPDH RNA levels in drug-treated cells, which is detected and quantified using the Human GAPDH Endogenous Control Mix (Applied Biosystems, AB 4310884E). […] Chemical agent cytotoxicity is evaluated using an MTS assay according to the manufacturer's directions (Promega). […]

Take `COC(=O)N[C@H](C(=O)N1CCC[C@H]1c1nc(-c2ccc(-c3ccc4c(c3)COCCCCO[C@H](C)[C@H](NC(=O)OC)C(=O)N3CCC[C@H]3c3nc-4c[nH]3)cc2)c[nH]1)C(C)C` [Compound 346]: the figures for the EC50 in the experiment on HCV 1a genotype replicon (read-out: 1a EC50) and in the experiment on HCV 1a genotype replicon (read-out: Range (EC50 range against HCV 1a)) were 2400 pM and > 1000 pM, respectively.
For `COC(=O)N[C@H]1CCCCOCc2cc(-c3ccc4cc(-c5c[nH]c([C@@H]6CCCN6C(=O)[C@@H](NC(=O)OC)C(C)C)n5)ccc4c3)ccc2NC(=O)[C@@H]2CCCN2C1=O` [Compound 350], the results for the EC50 with HCV 1b genotype replicon (read-out: 1b EC50) and with HCV 1b genotype replicon (read-out: Range (EC50 range against HCV 1b)) were 50 pM and < 100 pM, respectively.
